Assay type in all cases: functional
The test system of assay [1] is IMR-32. The assay is described as follows: Antiproliferative activity against human IMR-32 cells assessed as cellular metabolic activity at 1 mM incubated for 24 hrs by resazurin assay. (In general: The colour change of resazurin is a common sign of viable cells or microbes.)
Assay [2] concerns B104. Put plainly: Antiproliferative activity against rat B104 cells assessed as cellular metabolic activity at 1 mM incubated for 24 hrs by MTT assay. (In general: Tetrazolium dyes change colour on reduction, which living cells bring about.)
Assay [3] relates to B104. The assay is described as follows: Antiproliferative activity against rat B104 cells assessed as cellular metabolic activity at 1 mM incubated for 24 hrs by resazurin assay.
Assay [4] concerns SK-N-SH. The assay is described as follows: Antiproliferative activity against human SK-N-SH cells assessed as cellular metabolic activity at 1 mM incubated for 24 hrs by MTT assay.
For assay [5], the system named is SK-N-SH. The assay is described as follows: Antiproliferative activity against human SK-N-SH cells assessed as cellular metabolic activity at 1 mM incubated for 24 hrs by resazurin assay.
The test system of assay [6] is IMR-32. Put plainly: Antiproliferative activity against human IMR-32 cells assessed as cellular metabolic activity at 1 mM incubated for 24 hrs by MTT assay.

As for `N[C@@H](CCC(=O)N[C@@H](CSN=O)C(=O)NCC(=O)O)C(=O)O` [S-NITROSOGLUTATHIONE], the Activity in assay [1] was 13%; in assay [2], 18%; in assay [3] it was 17%; in assay [4] it was 16%; in assay [5] it was 15%; in assay [6], 14%.
